Experimental data: article PMC10951269, “5-HT_FAsTR: a versatile, label-free, high-throughput, fluorescence-based microplate assay to quantify serotonin transport and release” (Scientific Reports, 2024)
Read-outs that look alike come from different tables or passages of the source.

Key:
iSeroSnFR = assay: Dose-response of 5-HT binding to extracellular membrane-tethered iSeroSnFR; type: cell-based; conditions: HEK293MSR cells, not saturated at 10 mM 5-HT
Excerpt: Error bars represent SEM.
(2 pictures or pasted objects on this page, not shown here)

NCCc1c[nH]c2ccc(O)cc12 = assay: cells, lysate or membranes; conditions: other: HEK293MSR_iSeroSnFR cells with hSERT, 10 min, N = 7, pH 7.4
hSERT mutant I172M [1] = conditions: radiotracer assay; 10 µM [3H]5-HT; N = 3
Protocol: The uptake was terminated by washing the cells with ice-cold PBSCM, 50 µl Microscint (Perkin Elmer) was added and radioactivity was counted in a TopCounter microplate scintillation counter approximately one hour after microscint addition. The raw data was fitted to a non-linear fit in GraphPad Prism ([inhibitor] vs response (three parameters)) and normalized to the obtained top and bottom plateau as follows: rawdata-bottomplateau/topplateau-bottomplateau . The same non-linear fit of the normalized data was used to calculate logIC50 and IC50 values.

hSERT [2] = biological target: T1, hSERT (Homo sapiens, UniProt P31645); assay: 5-HT_FAsTR fluorescence efflux assay
Protocol: The efflux inducing drug was added at time point 0 and a time window showing efflux in the linear range was chosen for further analysis. The fluorescence intensity measured in response to the drug was normalized to the mean fluorescence intensity measured 2.5 min, 5 min and 7.5 min before the addition of the drug. A simple linear regression was performed with GraphPad Prism for the time window showing efflux in the linear range and the slope of the linear decrease in fluorescence in response to the drug was plotted against increasing drug concentrations. A non-linear fit ([Inhibitor] vs. response (three parameters), GraphPad Prism) was used to calculate EC50 as well as the top and bottom plateau. The drug-induced efflux was calculated by subtracting the top plateau from the bottom plateau.

hSERT mutant I172M [3] = conditions: fluorescence assay; 10 µM 5-HT; N = 3
Protocol: (§1) For the uptake inhibition assay determining IC50 values, the pre-incubation solutions contained 12 increasing concentrations of an hSERT or OCT2 inhibitor. […] The change in fluorescence was determined 10 min after adding the incubation solution. […] The raw data was fitted to a non-linear fit in GraphPad Prism ([inhibitor] vs response (three parameters) for hSERT data and [inhibitor] vs response – variable slope (four parameters) for hOCT2 data) and normalized to the obtained top and bottom plateau as follows: rawdata-bottomplateau/topplateau-bottomplateau . The same non-linear fit of the normalized data was used to calculate logIC50 and IC50 values. IC50 values were converted to pKi values using the Cheng-Prusoff equation[33]. pKi=pIC50/1+[S]/Km

hOCT2 = biological target: T2, hOCT2 (Homo sapiens, UniProt O15244); assay: 5-HT_FAsTR fluorescence uptake inhibition assay, hOCT2; type: cell-based; conditions: corresponding to the pKi
T2 sequence (O15244 1-555): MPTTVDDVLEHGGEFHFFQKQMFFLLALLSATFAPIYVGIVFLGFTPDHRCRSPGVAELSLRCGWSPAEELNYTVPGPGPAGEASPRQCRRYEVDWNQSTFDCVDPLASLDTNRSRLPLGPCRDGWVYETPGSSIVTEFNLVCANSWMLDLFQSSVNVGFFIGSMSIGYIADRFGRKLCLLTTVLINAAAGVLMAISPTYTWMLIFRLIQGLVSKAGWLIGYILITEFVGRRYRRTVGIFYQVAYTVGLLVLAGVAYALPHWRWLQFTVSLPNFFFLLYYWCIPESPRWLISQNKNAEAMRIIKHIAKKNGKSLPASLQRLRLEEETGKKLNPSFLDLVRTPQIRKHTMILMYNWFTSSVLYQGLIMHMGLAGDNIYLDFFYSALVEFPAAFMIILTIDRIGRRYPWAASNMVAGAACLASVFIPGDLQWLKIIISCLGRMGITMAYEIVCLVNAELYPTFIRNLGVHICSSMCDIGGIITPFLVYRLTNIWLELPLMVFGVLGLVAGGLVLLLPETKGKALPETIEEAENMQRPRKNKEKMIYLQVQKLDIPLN
Protocol: as §1

hSERT [4] = biological target: T1, hSERT; type: cell-based; design: expressed in transfected cells; host or cells: HEK293MSR cells stably expressing cytoplasmic iSeroSnFR; conditions: 5 µM inhibitor, control experiment
Excerpt: Data were fitted in Graphpad Prism to the in-built model for Michaelis–Menten kinetics using robust non-linear regression to calculate Km and Vmax.

[5] = substrate: NCCc1c[nH]c2ccc(O)cc12; assay: cells, lysate or membranes; conditions: other: hOCT2-transfected cells; non-specific uptake determined with imipramine; N = 3; pH 7.4

T1 sequence (P31645 whole entry): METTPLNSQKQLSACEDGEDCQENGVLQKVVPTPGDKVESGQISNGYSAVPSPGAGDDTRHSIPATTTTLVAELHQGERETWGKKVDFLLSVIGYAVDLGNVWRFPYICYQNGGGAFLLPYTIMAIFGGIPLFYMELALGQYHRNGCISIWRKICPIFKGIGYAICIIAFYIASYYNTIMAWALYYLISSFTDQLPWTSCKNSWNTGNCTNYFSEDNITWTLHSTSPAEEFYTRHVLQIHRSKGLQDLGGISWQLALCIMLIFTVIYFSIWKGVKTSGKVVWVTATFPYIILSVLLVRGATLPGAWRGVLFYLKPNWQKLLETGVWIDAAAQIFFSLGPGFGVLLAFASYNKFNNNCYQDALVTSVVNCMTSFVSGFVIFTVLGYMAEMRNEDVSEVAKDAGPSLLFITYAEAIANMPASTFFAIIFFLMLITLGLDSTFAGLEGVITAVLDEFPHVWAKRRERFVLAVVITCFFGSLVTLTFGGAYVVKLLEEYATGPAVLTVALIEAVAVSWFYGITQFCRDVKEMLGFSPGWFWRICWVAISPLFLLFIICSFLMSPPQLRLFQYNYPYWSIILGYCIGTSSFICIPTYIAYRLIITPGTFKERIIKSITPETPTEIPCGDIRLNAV

Q: For `NCCc1c[nH]c2ccc(O)cc12` [5-HT, 5-hydroxytryptamine], which EC50 (iSeroSnFR) is on record?
A: The EC50 was no less than 1520 µM.

Q: What does the source list for hSERT (Homo sapiens)?
A: Km (NCCc1c[nH]c2ccc(O)cc12; non-specific uptake determined with MJ1-53): 1.25 ± 0.48 µM; Km (NCCc1c[nH]c2ccc(O)cc12; non-specific uptake determined with S-Citalopram): 1.79 ± 0.19 µM

Q: How did the “fold decrease in potency, hSERT I172M compared to wild type (IC50 ratio)” value (hSERT mutant I172M [1]) turn out when `CNC(C)Cc1ccc2c(c1)OCO2` (stereo not drawn) [MDMA] was run?
A: Its value is “did not show any change”.

Q: And the EC50 (hSERT [2])?
A: The EC50 was 6.22 ± 1.62 µM.

Q: What about the “fluorescence change ± SEM (drug-induced efflux rate)” value (hSERT [2]; hSERT not present (empty vector), preloaded with 5-HT, N = 3) of the same molecule?
A: The value was 0.06 ± 0.01 %/minute.

Q: What about the “maximum fluorescence change ± SEM (drug-induced efflux rate)” value (hSERT [2]; hSERT-transfected cells preloaded with 10 µM 5-HT, N = 6) of the same molecule?
A: Its value is 0.66 ± 0.13 %/minute.

Q: And the “release of 5-HT relative to background levels from passive diffusion” value (hSERT [2]; hSERT-transfected cells vs background)?
A: Its value is “at least 11 fold”.

Q: And the “fold decrease in potency, hSERT I172M compared to wild type (IC50 ratio)” value (hSERT mutant I172M [3])?
A: Its value is “did not show any change”.

Q: For `C[Se+](C)CCCN1c2ccccc2CCc2ccc(Cl)cc21` [MJ1-53], which Ki (hOCT2) is on record?
A: The Ki was 0.164 µM.

Q: And the “effect of blocking the serotonin transporter on 5-HT uptake (fluorescence intensity)” value (hSERT [4])?
A: The value was “abolishes 5-HT uptake”.

B1: hOCT2 (Homo sapiens) (protein)
chain: T2 sequence (O15244 1-555)
Q: How did the Km [5] turn out when B1 was run?
A: Its Km is 183.6 ± 65.18 µM.
